Test results reported in patent EP2246037A2, “Anti-aging and whitening properties of quercetin, 18a-glycyrrhetinic acid, hederagenin and its derivatives” (Korres S.A. Natural Products, priority 2009, dated 2010).
Entries after “also recorded” stand apart in the source; their conditions may differ.

Experiments:
tyrosinase = assay: Immunoblot of tyrosinase expression in melanocytes; type: cell-based, Mouse; details: 72 h
Experimental: The steps, methods and results that were obtained regarding the whitening properties of the examined substances are the following: • A) Cellular whitening of melanocytes. • A.1. Mouse melanocytes (B10F16 cell line) were used in in vitro conditions (growth at 37°C, 5% CO2 and 95% humidity). • A.2. The cells were maintained in Dulbecco's modified Eagle's medium (DMEM®; Invitrogen Life Technologies Inc.) supplemented with 10% (v/v) fetal calf serum, 100 Units/ml penicillin, 100 µg/ml strepromycin, 2 mM glutamine and 1% (v/v) non-essential amino acids (complete medium). • A.3. 10^5 cells were seeded in petri dishes and the following day they were fed with medium supplemented with the substances [final concentration for all substances: 5 µg/ml and 10 µg/ml]. Quercetin (QUER), 18α-glycyrrhetinic acid (18α GA) and hederagenin (HED) were diluted in DMSO whereas quercetin caprylate was diluted in caprilic/capric triglycerides (CAP). Therefore, the control cultures were incubated in medium supplemented with 0.1% DMSO or 0.1% CAP. The media were replenished every 24 h and the cells were kept under these conditions constantly for 72 h. Cells were then collected and pelleted and the cell pellet was photographed. • A.4. […] The result was positively correlated to the concentration of quercetin used. • B) Detection of tyrosinase expression. • B.1. Mouse melanocytes were cultured as described in A.1.-A.3. After 72 h of treatment, the cells were collected, lysed and proteins were extracted and subjected to SDS-PAGE followed by immunoblot analysis against tyrosinase. Protein concentrations were determined using the Bradford method with BSA as a standard. • B.2.
Immunoblot analysis of tyrosinase (70-80 kDa) in melanocytes treated with the substances or the relative diluents. Equal protein loading was verified by stripping the membrane and reprobing them with GAPDH (37 kDa) antibody (bottom panel).

[1] = test system: HFL-1 human diploid fibroblasts; assay: β-galactosidase activity staining of continuously treated fibroblasts; type: cell-based
Experimental: The steps, methods and results that were obtained regarding the anti-aging properties of the examined substances are the following: • 1) Study of the lifespan of human diploid fibroblasts in vitro in the presence of the substances. • 1.1. HFL-1 human diploid fibroblasts (HDFs) were used in in vitro conditions (growth at 37°C, 5% CO2 and 95% humidity). • 1.2. The cells were maintained in Dulbecco's modified Eagle's medium (DMEM ®; Invitrogen Life Technologies Inc.) supplemented with 10% (v/v) fetal calf serum, 100 Units/ml penicillin, 100 µg/ml strepromycin, 2 mM glutamine and 1% (v/v) non-essential amino acids (complete medium). • 1.3. The cells were constantly cultured in culture medium supplemented with the substances [final concentration for quercetin (QUER), 18α-glycyrrhetinic acid (18α GA), and hederagenin (HED): 2 µg/ml and for quercetin caprylate (QU-CAP) three concentrations were applied: 0.5, 2 and 5 µg/ml]. Quercetin, 18α-glycyrrhetinic acid and hederagenin were diluted in DMSO (dimethyl sulfoxide) whereas quercetin caprylate was diluted in caprilic/capric triglycerides (CAP). Therefore, the control cultures were incubated in medium supplemented with 0.1% DMSO or 0.1% CAP. • 1.4. The cells were replenished with fresh media supplemented with the substances or the diluents every 24 h and their numbers were examined using a Coulter Z2 ® counter (Coulter Corporation) until they reached senescence (approximately after 13 weeks). The cumulative population doublings performed by each culture were calculated using the following formula: CPD=Σ[PD] where PD=LOG[Nfinal/Ninitial]/LOG[2], where N final represents the number of cells that were measured when each culture reached confluence and N initial represents the number of cells that was initially seeded. • 1.5. Photographs of the cells maintained in cell culture and treated with the various substances for the same time period were taken. • 1.6. […] More specifically, cells that were incubated with quercetin caprylate gave up to 2.8% more population doublings as compared to the population doublings performed by the relative control cultures. Cells that were incubated with the other substances gave up to 2.9% more population doublings as compared to their relative control cultures. • 1.7. […] Cells that were treated with either of the tested substances maintained the young morphology for longer as compared to the control cultures (DMSO-treated and CAP-treated). […] Briefly, 10^5 cells from each culture were seeded in 6-well plates. After 24 h cells were washed with PBS (phosphate buffered saline), fixed in 0.2% glutaraldehyde and 2% formaldehyde for 5 min, washed again with PBS, and finally stained for 24 h at 37 °C in the absence of CO2, in staining solution (150 mM NaCl, 2 mM MgCl2, 5 mM K3Fe(CN)6, 40 mM citric acid, and 12 mM sodium phosphate, pH 6.0) containing 1 mg/ml 5-bromo-4-chloro-3-indolyl-β-D-galactoside. Photographs were then taken. • 1.3. […] HFL-1 HDFs that have senesced in vitro were used (growth at 37°C, 5% CO2 and 95% humidity). More specifically, middle aged HFL-1 HDFs (cpd 59) and terminally senescent HFL-1 HDFs (cpd 65) that had senesced in the absence of any substance were used. • 3.2. The cells were seeded and maintained in complete medium (see 1.2). Culture medium supplemented with the substances [final concentration for quercetin (QUER), 18α-glycyrrhetinic acid (18α GA), and hederagenin (HED): 2 µg/ml and for quercetin caprylate (QU-CAP) three concentrations were applied: 0.5, 2 and 5 µg/ml] or the diluents (0.1% DMSO or 0.1% CAP) were added 24 h later. The cells were replenished with fresh media supplemented with the substances or the diluents every 24 h for 1 week and their numbers were then examined using a Coulter Z2 ® counter (Coulter Corporation). • 3.3. Detection of β-galactosidase activity was performed in these cells as described above and photographs of the cells following β-galactosidase activity assay were taken. • 3.4. […]

[2] = test system: proteasome subunits (β5, α7); assay: Immunoblot of proteasome subunit levels in treated cells; type: cell-based, human; details: 24 h treatment
HFL-1 HDFs = assay: Levels of oxidized (carbonylated) proteins, OxyBlot analysis; type: cell-based, human; details: 24 h treatment, versus relative control cells

Row | protein levels of tyrosinase (tyrosinase; high concentration (10 µg/ml)) | Molecule | % β-galactosidase positive cells ([1]; 2 µg/ml) [%] | protein levels of proteasome subunits (β5, α7) [2] | levels of oxidized proteins (HFL-1 HDFs) | protein levels of tyrosinase (tyrosinase; 5 µg/ml and 10 µg/ml) | % β-galactosidase positive cells ([1]; 0,5 µg/ml) [%] | % β-galactosidase positive cells ([1]; 5 µg/ml) [%]
1 | reduced protein levels of tyrosinase | CC1(C)CC[C@]2(C(=O)O)CC[C@]3(C)C(=CC[C@@H]4[C@@]5(C)CC[C@H](O)[C@@](C)(CO)[C@@H]5CC[C@]43C)[C@@H]2C1 [Hederagenin] | 31.8 | did not detect any up-regulation | – | – | – | –
2 | – | quercetin caprylate | 32.3 | elevated protein levels | less oxidized proteins; also recorded: lower amounts of oxidized proteins | reduced protein levels of tyrosinase | 36.6 | 47
3 | – | CC1(C)[C@@H](O)CC[C@]2(C)[C@H]3C(=O)C=C4[C@H]5C[C@@](C)(C(=O)O)CC[C@]5(C)CC[C@@]4(C)[C@]3(C)CC[C@@H]12 [18α-glycyrrhetinic acid] | 37.7 | similar | slightly lower levels of oxidized carbonylated proteins; also recorded: lower amounts of oxidized proteins | – | – | –
4 | – | O=c1c(O)c(-c2ccc(O)c(O)c2)oc2cc(O)cc(O)c12 [Quercetin] | 13.5 | elevated protein levels | – | reduced protein levels of tyrosinase | – | –
